Common to all, as to type: biochemical
In one test the target is T1, TRAAKA270P (Homo sapiens, UniProt Q9NYG8, A244P).
T1 construct: The transcribed messages encode H. sapiens TRAAK amino acids 1–393; expressed in transfected cells; host or cells: Xenopus laevis oocytes, cRNA injection
T1 sequence (Q9NYG8 1-393 A244P): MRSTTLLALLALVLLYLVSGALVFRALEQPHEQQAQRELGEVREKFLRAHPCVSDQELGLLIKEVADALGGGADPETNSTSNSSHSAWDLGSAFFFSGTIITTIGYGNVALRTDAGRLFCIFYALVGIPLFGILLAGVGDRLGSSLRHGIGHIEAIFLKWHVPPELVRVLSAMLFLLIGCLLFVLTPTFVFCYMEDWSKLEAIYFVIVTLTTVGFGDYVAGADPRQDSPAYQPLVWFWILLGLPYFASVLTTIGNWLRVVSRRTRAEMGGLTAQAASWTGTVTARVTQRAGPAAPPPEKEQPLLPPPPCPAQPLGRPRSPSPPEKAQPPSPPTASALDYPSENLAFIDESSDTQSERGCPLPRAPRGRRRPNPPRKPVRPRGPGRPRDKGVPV
The test can be described thus: Excised patch recording of TRAAK mutant A270P. The source says:
(§1) For patch clamp recording from Xenopus oocytes, genes encoding full-length Homo sapiens TRAAK (UniProt Q9NYG8–2), TREK-1 (UniProt O95069), and TREK-2 (UniProt P57789) were codon optimized for eukaryotic expression, synthesized (Genewiz), and cloned into a modified pGEMHE vector using Xho1 and EcoR1 restriction sites. The transcribed messages encode H. sapiens TRAAK amino acids 1–393, TREK-1 amino acids 1–426, or TREK-2 amino acids 1–538 with an additional three amino acids (SNS) at the C terminus. TRAAK mutants were introduced by polymerase chain reaction (PCR). Linearized DNA was transcribed in vitro using T7 polymerase. Complementary RNA (0.1 to 10 ng for TRAAK, TREK-1, TREK-2, and mutants) in 50 nL H2O was injected into Xenopus laevis oocytes extracted from anesthetized frogs. Currents were recorded at 25 °C from inside-out patches excised from oocytes 1 to 5 d after RNA injection. […]
(§2) Patches were evaluated with voltage-step protocols to confirm TRAAK expression and minimal non-specific leak based on reversal potential. Currents were recorded using an Axopatch 200B amplifier (Molecular Devices) at a bandwidth of 1 kHz and digitized with an Digidata 1550B (Molecular Devices) at 100–500 kHz using pClamp10.7 software. […] In an effort to minimize variability associated with differences in resting membrane tension, we targeted patches with low basal curvature and low resting channel activity and ensured measured pressure difference across the patch was as close to zero as possible at rest to prevent mechanical activation of channels. Data were analyzed using Clampfit 10.7, Excel, and Graphpad Prism software. […]
(§3) To avoid cannabinoid absorption to plastic, cannabinoid solutions were made in glass vials and diluted by weight, perfusion was performed using glass tubing pulled from borosilicate glass Pasteur pipettes (Fisherbrand, Cat# 13–678-20C), and recordings were performed in glass chambers. Channel activity was continuously recorded during perfusion steps. […]

For a further test, the target named is T2, TRAAKG158D (Homo sapiens, UniProt Q9NYG8, G132D).
T2 construct: The transcribed messages encode H. sapiens TRAAK amino acids 1–393; expressed in transfected cells; host or cells: Xenopus laevis oocytes, cRNA injection
T2 sequence (Q9NYG8 1-393 G132D): T1 sequence (Q9NYG8 1-393 A244P) with G132D, P244A
Put plainly: Excised patch recording of TRAAK mutant G158D.
Source text: For patch clamp recording from Xenopus oocytes, genes encoding full-length Homo sapiens TRAAK (UniProt Q9NYG8–2), TREK-1 (UniProt O95069), and TREK-2 (UniProt P57789) were codon optimized for eukaryotic expression, synthesized (Genewiz), and cloned into a modified pGEMHE vector using Xho1 and EcoR1 restriction sites. The transcribed messages encode H. sapiens TRAAK amino acids 1–393, TREK-1 amino acids 1–426, or TREK-2 amino acids 1–538 with an additional three amino acids (SNS) at the C terminus. TRAAK mutants were introduced by polymerase chain reaction (PCR). Linearized DNA was transcribed in vitro using T7 polymerase. Complementary RNA (0.1 to 10 ng for TRAAK, TREK-1, TREK-2, and mutants) in 50 nL H2O was injected into Xenopus laevis oocytes extracted from anesthetized frogs. Currents were recorded at 25 °C from inside-out patches excised from oocytes 1 to 5 d after RNA injection. The pipette solution contained 15 mM KCl, 135 mM NaCl, 2 mM MgCl2, and 10 mM HEPES (pH = 7.4 with KOH) and the bath solution contained 150 mM KCl and 10 mM HEPES (pH = 7.1 with KOH). Borosilicate glass pipettes were pulled to 2–5 MΩ resistance.
Patches were evaluated with voltage-step protocols to confirm TRAAK expression and minimal non-specific leak based on reversal potential. Currents were recorded using an Axopatch 200B amplifier (Molecular Devices) at a bandwidth of 1 kHz and digitized with an Digidata 1550B (Molecular Devices) at 100–500 kHz using pClamp10.7 software. Pressure was applied with a second-generation high-speed pressure clamp device (HSPC-2-SB, ALA Scientific Instruments). Aggregated data were from patches from n ≥ 2 different cells on different days. No relevant differences were observed between patches from different cells. In an effort to minimize variability associated with differences in resting membrane tension, we targeted patches with low basal curvature and low resting channel activity and ensured measured pressure difference across the patch was as close to zero as possible at rest to prevent mechanical activation of channels. Data were analyzed using Clampfit 10.7, Excel, and Graphpad Prism software. For voltage families, the data were decimated 100x and plotted in Prism. […]
as §3
The effects of cannabinoids on channel activity were quantified by the reduction in channel current evoked at 0 mV during a gap-free recording or during 200 ms long voltage families with steps ranging from −100 to +100 mV. […]

The next test concerns the target T3, TRAAKA198E (Homo sapiens, UniProt Q9NYG8, A172E).
T3 construct: The transcribed messages encode H. sapiens TRAAK amino acids 1–393; expressed in transfected cells; host or cells: Xenopus laevis oocytes, cRNA injection
T3 sequence (Q9NYG8 1-393 A172E): T1 sequence (Q9NYG8 1-393 A244P) with A172E, P244A
The test can be described thus: Excised patch recording of TRAAK mutant A198E.
Source text: as §1, §2, §3

Numbering of substitutions follows the chain as printed.

As to `C=C(C)[C@@H]1CCC(C)=C[C@H]1c1c(O)cc(CCCCC)cc1O` [CBD, Cannabidiol], the IC50 against TRAAKA270P turned out to be 1120 ± 40 nM; against TRAAKG158D, 1030 ± 220 nM; against TRAAKA198E, 496 ± 26 nM. In addition, the “inhibition of channel activity at high concentration” value on TRAAKA270P (10 μM CBD) and against TRAAKA198E (10 μM CBD) was “fully inhibited” in each case. Besides, the “fold less sensitive than wild-type TRAAK” value at TRAAKA270P (A270P vs wild-type) is on record as ~ 8 fold; at TRAAKG158D (G158D vs wild-type) it was ~ 7.1 fold; on TRAAKA198E (A198E vs wild-type), ~ 4 fold. For the same compound, a half-maximal response at TRAAKG158D (EC50) required 1030 ± 220 nM. Moreover, the inhibition at 10 µM at TRAAKG158D (highest CBD concentration tested, 10 μM, read-out: inhibition plateauing at % of initial current) was roughly 45%.
